# Data reported in paper PMC6274316 (Molecules, 2016).
# Entries after “also recorded” stand apart in the source; their conditions may differ. Marks after values point to notes of the source that are not given here.
# Key:
# [1] = system: ADP-induced platelet aggregation; test: Inhibition of ADP-induced platelet aggregation in rats ex vivo (Born's method); design: species or system rat; settings: for Platelet Aggregation (%): male Wistar rats, ADP 1.0 μM, mean ± SD n = 6; for antiplatelet effect (in words): rat ex vivo
# Description: Two hours after administration, rats were anesthetized using sodium pentobarbital and blood samples collected from the abdominal aorta for platelet aggregation tests using Born’s method. ADP (1.0 μM, Sigma-Aldrich, Co., St. Louis, MO, USA) was used as agonist for platelet aggregation. Platelet aggregation was measured using a coagulation analyzer (NJ4, Beijing Precil Instrument Company, Beijing, China).
# esterases = settings: cited from earlier work
# [2] = rat, 1000 ng/mL
# Description: Blood samples (100 μL) were collected every 10 min over 120 min, mixed with methanol (950 μL), water (50 μL) and an internal standard (IS) solution (diazepam, 100 μL, 100 ng/mL) and centrifuged at low temperature at 13,000 rpm. […] This was carried out using an Agilent 1100 Series HPLC system (degasser, pump, auto sampler, and column oven, Agilent Technologies, Santa Clara, CA, USA) coupled to an AB SCIEX Qtrap 2000 mass spectrometer (Applied Biosystems Sciex, Ottawa, ON, Canada) with an ESI source operated in the positive ion mode. Data acquisition and integration were performed by Analyst software (version 1.3.2, Applied Biosystems Sciex, Ottawa, ON, Canada). Chromatography was performed on a ZORBAX Extend-C18 column (150 mm × 4.6 mm i.d., 5 μm, Agilent Technologies, Santa Clara, CA, USA) maintained at 40 °C using methanol and 0.1% aqueous formic acid (20:80, v/v) as mobile phase delivered at a flow rate of 1.0 mL/min. The injection volume was 20 μL. A 50:50 split of the column eluent was made by means of a T-piece. The mass spectrometer was operated at unit resolution for Q1 and Q3 in the multiple reaction monitoring (MRM) mode with a dwell time of 200 ms per MRM channel. […] QC samples were prepared independently at concentrations of 3, 30, and 800 ng/mL in the same way. […]
# CYP2C19 = settings: cited from earlier work
# [3] = rat; cited from earlier work
# [4] = ex vivo 2 h after oral dose 7.8 μmol/kg
SMILES,melting point [°C],"Platelet Aggregation (%) [1, 4] [%]",antiplatelet effect (in words) ([1]; oral dose 7.8 μmol/kg),also measured
"[2H]C([2H])([2H])OC(=O)[C@H](c1ccccc1Cl)N1CCc2sc(OC(=O)CCCCC)cc2C1 [Compound 10g, (S)-5-(1-(2-Chlorophenyl)-2-(methoxy-d3)-2-oxoethyl)-4,5,6,7-tetrahydrothieno[3,2-c]pyridin-2-yl hexanoate]",49.4 to 52.7,35.2 ± 7.7,potent antiplatelet activity,
"[2H]C([2H])([2H])OC(=O)[C@H](c1ccccc1Cl)N1CCc2sc(OC(=O)CCCCCCCCCCC)cc2C1 [Compound 10i, (S)-5-(1-(2-Chlorophenyl)-2-(methoxy-d3)-2-oxoethyl)-4,5,6,7-tetrahydrothieno[3,2-c]pyridin-2-yl laurate]",35.8 to 37.6,49.7 ± 4.0,,
"[2H]C([2H])([2H])OC(=O)[C@H](c1ccccc1Cl)N1CCc2sc(OC(C)=O)cc2C1 [Compound 10a, Methyl-d3 (S)-2-(2-acetoxy-6,7-dihydrothieno[3,2-c]pyridin-5(4H)-yl)-2-(2chlorophenyl)acetate]",,17.3 ± 8.2,potent inhibitors; also recorded: potent antiplatelet activity,
"[2H]C([2H])([2H])OC(=O)[C@H](c1ccccc1Cl)N1CCc2sc(OC(=O)C(C)(C)CC)cc2C1 [Compound 10h, (S)-5-(1-(2-Chlorophenyl)-2-(methoxy-d3)-2-oxoethyl)-4,5,6,7-tetrahydrothieno[3,2-c]pyridin-2-yl 2,2-dimethylbutanoate]",99.4 to 100.3,48.5 ± 6.7,,
"COC(=O)[C@H](c1ccccc1Cl)N1CCc2sccc2C1 [clopidogrel, Clopidogrel]",,59.8 ± 8.4,low activity,"proportion hydrolyzed by esterases to inactive clopidogrel acid (esterases): 85%; proportion of an oral dose metabolized to inactive metabolites (esterases): more than 90%; time after which concentration was below the limit of detection [2]: 70 min; Platelet Aggregation (%) ([1]; ex vivo 2 h after oral dose 78 μmol/kg (clopidogrel bisulfate, active control)): 15.8 ± 8.0 ^b %; antiplatelet effect (in words) ([1]; oral dose 78 μmol/kg): strong inhibitory effect; contribution of CYP2C19 to the first step (to 2-oxoclopidogrel) (CYP2C19): 44.9%; contribution of CYP2C19 to the second step (2-oxoclopidogrel to AM) (CYP2C19): 20.6%"
"[2H]C([2H])([2H])OC(=O)[C@@H](c1ccccc1Cl)N1CCc2sc(OC(C)=O)cc2C1 [Compound R-10a, Methyl-d3 (R)-2-(2-acetoxy-6,7-dihydrothieno[3,2-c]pyridin-5(4H)-yl)-2-(2chlorophenyl)acetate]",,57.4 ± 5.0,almost inactive,
"[2H]C([2H])([2H])OC(=O)[C@H](c1ccccc1Cl)N1CCC2SC(=O)C=C2C1 (stereo partly drawn) [Compound 9, Methyl-d3 (2S)-2-(2-chlorophenyl)-2-(2-oxo-2,6,7,7a-tetrahydrothieno[3,2-c]pyridin-5(4H)-yl)acetate]",,21.2 ± 7.6,potent antiplatelet agent,
"[2H]C([2H])([2H])OC(=O)[C@H](c1ccccc1Cl)N1CCc2sc(OC(=O)c3cccnc3)cc2C1 [Compound 10m, (S)-5-(1-(2-Chlorophenyl)-2-(methoxy-d3)-2-oxoethyl)-4,5,6,7-tetrahydrothieno[3,2-c]pyridin-2-yl nicotinate]",92.1 to 94.8,37.4 ± 6.7,strong potency; also recorded: potent antiplatelet activity,
"[2H]C([2H])([2H])OC(=O)[C@H](c1ccccc1Cl)N1CCc2sc(OC(=O)C3CC3)cc2C1 [Compound 10e, (S)-5-(1-(2-Chlorophenyl)-2-(methoxy-d3)-2-oxoethyl)-4,5,6,7-tetrahydrothieno[3,2-c]pyridin-2-yl cyclopro-panecarboxylate]",,24.6 ± 10.0,anomalously potent; also recorded: potent antiplatelet activity,
"Cl.[2H]C([2H])([2H])OC(=O)[C@H](c1ccccc1Cl)N1CCc2sc(OC(=O)CC)cc2C1 [Compound 10b, (S)-5-(1-(2-Chlorophenyl)-2-(methoxy-d3)-2-oxoethyl)-4,5,6,7-tetrahydrothieno[3,2-c]pyridin-2-yl propionate hydrochloride]",,24.9 ± 9.7,potent antiplatelet activity,
"Cl.[2H]C([2H])([2H])OC(=O)[C@H](c1ccccc1Cl)N1CCc2sc(OC(=O)C(C)C)cc2C1 [Compound 10d, (S)-5-(1-(2-Chlorophenyl)-2-(methoxy-d3)-2-oxoethyl)-4,5,6,7-tetrahydrothieno[3,2-c]pyridin-2-yl isobutyrate hydrochloride]",146.7 to 149.9,36.3 ± 4.5,potent antiplatelet activity,
"[2H]C([2H])([2H])OC(=O)[C@H](c1ccccc1Cl)N1CCc2sc(OC(=O)c3ccccc3C(F)(F)F)cc2C1 [Compound 10l, (S)-5-(1-(2-Chlorophenyl)-2-(methoxy-d3)-2-oxoethyl)-4,5,6,7-tetrahydrothieno[3,2-c]pyridin-2-yl 2-(trifluoromethyl)benzoate]",,49.2 ± 4.6,,
"[2H]C([2H])([2H])OC(=O)[C@H](c1ccccc1Cl)N1CCc2sc(OC(=O)C(C)(C)C)cc2C1 [Compound 10f, (S)-5-(1-(2-Chlorophenyl)-2-(methoxy-d3)-2-oxoethyl)-4,5,6,7-tetrahydrothieno[3,2-c]pyridin-2-yl pivalate]",105.4 to 107.1,44.7 ± 4.1,,
"COC(=O)[C@H](c1ccccc1Cl)N1CCc2sc(OC(C)=O)cc2C1 [vicagrel, reference compound]",,20.0 ± 9.1,potent inhibitors,level of AM relative to clopidogrel [3]: four-fold
"Cl.[2H]C([2H])([2H])OC(=O)[C@H](c1ccccc1Cl)N1CCc2sc(OC(=O)c3ccccc3)cc2C1 [Compound 10k, (S)-5-(1-(2-Chlorophenyl)-2-(methoxy-d3)-2-oxoethyl)-4,5,6,7-tetrahydrothieno[3,2-c]pyridin-2-yl benzoate hydrochloride]",,43.6 ± 9.5,,
"[2H]C([2H])([2H])OC(=O)[C@H](c1ccccc1Cl)N1CCc2sc(OC(=O)CCC)cc2C1 [Compound 10c, (S)-5-(1-(2-Chlorophenyl)-2-(methoxy-d3)-2-oxoethyl)-4,5,6,7-tetrahydrothieno[3,2-c]pyridin-2-yl butyrate]",,29.9 ± 9.5,potent antiplatelet activity,
"O=S(=O)(O)O.[2H]C([2H])([2H])OC(=O)[C@H](c1ccccc1Cl)N1CCc2sccc2C1 [Compound 8, Methyl-d3 (S)-2-(2-chlorophenyl)-2-(6,7-dihydrothieno[3,2-c]pyridin-5(4H)-yl)acetate bisulfate]",,36.6 ± 6.6,potent inhibitors,
"[2H]C([2H])([2H])OC(=O)[C@H](c1ccccc1Cl)N1CCc2sc(OC(=O)C=Cc3ccccc3)cc2C1 [Compound 10j, (S)-5-(1-(2-Chlorophenyl)-2-(methoxy-d3)-2-oxoethyl)-4,5,6,7-tetrahydrothieno[3,2-c]pyridin-2-yl cinnamate]",121.7 to 123.1,56.4 ± 6.9,,
